Measured values as given in patent publication US6569846B1, “Palladium-substituted bacteriochlorophyll derivatives and use thereof” (Yeda Research and Development Co. Ltd., priority 1998, dated 2003).
Values joined by “and” are separate entries in the source; they are usually repeats but may differ in a detail not shown here. Equal entries are not always repeated.

What was measured:
[1] = system: A431 human epithelial carcinoid cells
Method: (ii) Light source: Halogen lamp (Osram, Germany, 100 W), with 4.5 cm water filter and cut off filter>650 nm. The cells were illuminated for 10 minutes, 15 mW/cm^2, a total energy fluency of 9 J/cm^2. For illumination, the culture plates were placed on a glass table to provide the light from the bottom.
(iii) Phototoxicity study: A431 cells (5×10^4 cells) were seeded in 3 cm dishes in duplicates and cultured to 75% confluency in Dulbecco's modified Eagle's medium (DMEM)+F12 (1:1), buffered with HEPES (25 mM, pH 7.4), fetal calf serum (FCS) with penicillin (0.06 mg/ml) and streptomycin (0.1 mg/ml). […] After a 4-hour period the cells were washed with culture medium and the cells were illuminated with the light source above. Phase contrast microscopic examination was performed at different time points after illumination (0, 0.5, 4 and 24 hours post-PDT) using Zeiss Axiovert-35 light microscope (magnification X320) equipped with a Contax 35 mm SLR camera. In the second dish of every duplicate, cell viability was assessed 24 hours post-PDT using neutral red viability assay (Zhang S Z., 1990, Cell Biol Toxicol 6(2): 219-234).

[2] = system: RIF (Radiation induced Fibrosarcoma) line; assay: In vitro phototoxicity on RIF cells (MTT); type: cell-based, mouse
Method: (§1) (i) Cell lines. The murine leukemia cell line (L1210) was maintained in suspension culture using Fischer's medium supplemented with 10% horse serum, 1 mM glutamine, 1 mM mercaptoethanol and gentamicin. The RIF (Radiation induced Fibrosarcoma) tumor was maintained as specified by Twentyman et al. (1980, “A new mouse tumor model system (RIF-1) for comparison of end-point studies”, J. Natl. Cancer Inst., 64, 595-604). Cultures were grown in Weymouth's medium containing 10% fetal calf serum and gentamycin.
(ii) In vitro phototoxicity. For studies on phototoxicity involving L1210 and RIF cells, light was provided by a 600 watt quartz-halogen source filtered with 10 cm of water and a 850 nm cut-off filter to remove IR. The bandwidth was further confined to 660±5 nm by an interference filter (Oriel). Cells in suspension (L1210) or adhering to 24 mm diameter cover slips were incubated in growth medium (with 20 mM HEPES pH 7 replacing NaHCO3 for added buffering capacity) for 15 min in the presence of specified levels of sensitizers. […] For some studies, the cells were then labeled with fluorescent probes and sites of photodamage were assessed. […]
(§2) (iii) Cell Viability. Cell survival was assessed by the MTT reaction carried out 3 days after plating of 1,000-50,000 cells in 96 well plates. […] Absorbance at x nm was determined with a BioRad Plate reader. […]

[3] = system: M2R mouse melanoma cells; assay: Phototoxicity on M2R cells (Example 11, [3H]-thymidine incorporation); type: cell-based
Method: For phototoxicity analysis cells (1×10^4 cells/well) were cultured in 96-well plates for 24 hours to an approximate density of 2×10^4 cells/well. Pigments were dissolved directly in culture medium or in ethanol 95% and further diluted in culture medium to a final concentration of 1% ethanol. The diluted pigments were added and the cells were incubated in the dark for four hours at 37° C. Prior to illumination, the cells were washed once and replaced with fresh culture medium. The plates were then illuminated from the bottom for 10 minutes at room temperature and placed in the culture incubator at 37° C. in the dark. Cell survival was determined 24 hours later. The following control systems were used: Dark control—untreated cells kept in the dark; Light control—cells not treated with sensitizer that were illuminated; Dark toxicity—cells treated with pigment but kept in the dark. Cell survival was determined by [^3H]-thymidine incorporation as described earlier (WO 97/19081). […]
(iii) Phototoxicity study: Analysis was performed with the same protocol as described above (Example 10) with the following changes: Pd-BPheid was dissolved directly in medium containing 10% serum and then added to the cells. Survival of M2R cells was determined by [^3H]-thymidine incorporation and that of human HT29 cells with the MTT assay (Merlin J L et al., 1992 Eur. J. Cancer 28A: 1452-1458).

[4] = system: RIF-1 fibrosarcoma; assay: In vivo PDT of RIF-1 fibrosarcoma; parameters: key to Summary (cures), symbol: −: no response
Method: Photodynamic therapy parameters: Mice with tumors measuring 5-7 mm in diameter were entered into PDT experiments. Three Pd-BPheid drug doses (1, 5 and 10 mg/kg) and two light doses (100 and 300 Joules/sq.cm) were evaluated. A formulation of Pd-BPheid dissolved in Cremophor was administered by i.v. tail injection. PDT light exposure was started either 15 minutes, 1 hour or 4 hours following injection. […] A titanium sapphire laser tuned to 757 nm was used as the light source for PDT. Laser generated light was coupled into quartz fibers for delivery of light to tumors. A light power density of 75 mW/sq.cm was used. Tumor size was measured 3 days per week following PDT treatments and the percentage of tumor cures (defined as no tumor recurrence for 40 days post treatment) was determined.
In vivo PDT Response: Tables 4 and 5 hereinafter provide summaries of the PDT treatment results for C3H mice transplanted with either the BA mammary carcinoma or the RIF-1 fibrosarcoma. Each table indicates the following parameters: 1) intravenous drug dose expressed in mg/kg; 2) laser treatment parameters, including the total light dose (J/cm^2), the wavelength (757 nm), the light dose rate (mW/cm^2), and the time interval ([…], 4) toxicity (four mice died shortly after treatment), 5) tumor regrowth (consisting of the number of days between PDT treatment and tumor recurrence) and 6) the number of mice (and percentage) with Pd-BPheid PDT induced tumor cures.

[5] = system: L1210 murine leukemia cells; assay: In vitro phototoxicity on L1210 cells (MTT); type: cell-based; conditions: 1 μM, 30 min at 37° C.
Method: as §1
(ii) In vitro phototoxicity. For studies on phototoxicity involving L1210 and RIF cells, light was provided by a 600 watt quartz-halogen source filtered with 10 cm of water and a 850 nm cut-off filter to remove IR. […] […] The cells were then washed free from the sensitizer, and transferred to fresh media. Irradiations were carried out at 10° C. For some studies, the cells were then labeled with fluorescent probes and sites of photodamage were assessed. In other studies, the cells were then incubated for 60 min at 37° C. in fresh medium to allow apoptosis to proceed. Viability studies were carried out using 96-well plates and a 72-hour MTT assay, in quadruplicate.
as §2

[6] = 1 mg/Kg i.v., 300 J/cm^2, 757 nm, 75 mW/cm^2, 15 min. interval
[7] = 5 mg/Kg i.v., 300 J/cm^2, 757 nm, 75 mW/cm^2, 1 HR. interval
[8] = 5 mg/Kg i.v., 300 J/cm^2, 757 nm, 75 mW/cm^2, 15 min. interval
[9] = 10 mg/Kg i.v., 100 J/cm^2, 757 nm, 75 mW/cm^2, 1 HR interval
[10] = 10 mg/Kg i.v., 100 J/cm^2, 757 nm, 75 mW/cm^2, 15 min. interval
[11] = 10 mg/Kg i.v., 300 J/cm^2, 757 nm, 75 mW/cm^2, 1 HR interval
[12] = 10 mg/Kg i.v., 300 J/cm^2, 757 nm, 75 mW/cm^2, 4 HR interval
[13] = 10 mg/Kg i.v., 300 J/cm^2, 757 nm, 75 mW/cm^2, 15 min. interval

CC[C@H]1C2=NC(=Cc3c(C(C)=O)c(C)c4[n]3[Pd][n]3c(c(C)c5c3=C(C3=NC(=C4)[C@@H](C)[C@@H]3CCC(=O)O)[C@@H](C(=O)OC)C5=O)=C2)[C@@H]1C [Pd-BPheid, Pd-bacteriopheophorbide a]
LD90 concentration ([1]; 4-hour incubation, illuminated 10 minutes, 15 mW/cm^2, 9 J/cm^2): 0.1 µM | cells that lost most of their inner volume ([1]; after 4 hours post PDT): 90% | time of alteration in the cells membrane structure ([1]; post PDT): 30 min | morphological phenotype post PDT ([1]; sensitizer at LD90 concentration, phase contrast microscopy): fibrous phenotype | light dose required for a similar degree (50%) of cell killing [2]: 215 mJ/cm^2 | sensitivity of M2R cells relative to HT-29 cells [3]: about 10 times | Number of Animals with Primary Tumor Regrowth (Days to Recurrence) [4, 6]: 2(1 day) | Summary (cures), symbol [4, 6]: − | Toxicity (Treatment associated death) [4, 6]: 0 | Number of Animals with Primary Tumor Regrowth (Days to Recurrence) [4, 7]: 1(4 days) and 1(2 days) and 1(7 days) | Toxicity (Treatment associated death) [4, 7]: 0 | Number of Animals with Primary Tumor Regrowth (Days to Recurrence) [4, 8]: 1(5 days) and 1(12 days) | Summary (cures) % [4, 8]: 33.33% | Summary (cures), number of animals (days) [4, 8]: 1(40 days) | Toxicity (Treatment associated death) [4, 8]: 0 | Number of Animals with Primary Tumor Regrowth (Days to Recurrence) [4, 9]: 2(3 days) and 1(6 days) | Toxicity (Treatment associated death) [4, 9]: 0 | Number of Animals with Primary Tumor Regrowth (Days to Recurrence) [4, 10]: 2(12 days) and 1(7 days) | Toxicity (Treatment associated death) [4, 10]: 0 | Number of Animals with Primary Tumor Regrowth (Days to Recurrence) [4, 11]: 1(20 days) | Summary (cures) % [4, 11]: 25.00% | Summary (cures), number of animals (days) [4, 11]: 1(40 days) | Toxicity (Treatment associated death) [4, 11]: 2 | Toxicity (Treatment associated death), number of animals (day) [4, 11]: 2(1 day) | Summary (cures), symbol [4, 12]: − | Toxicity (Treatment associated death) [4, 12]: 0 | Summary (cures) % [4, 13]: 33.33% | Toxicity (Treatment associated death) [4, 13]: 2 | Toxicity (Treatment associated death), number of animals (day) [4, 13]: 2(1 day) | effectiveness of PDT ([4]; 4-hour interval between drug administration and light treatment): not effective | effectiveness of PDT ([4]; light treatments initiated within 1 hour of drug administration): effective | cell killing ([5]; 75 mJ/cm^2 light at 760±5 nm): 50% | dose of light resulting in 50% cell killing ([5]; light at 760±5 nm): 75 mJ/cm^2
